From paper PMC7351617 (Journal of neurochemistry, 2020)
Like-named read-outs stand apart in the source and are kept apart here.

Assays:
[1] = tested on: rat adrenal chromaffin cells (native α3β4* / α3β2β4 nAChRs); conditions: SD
[2] = tested on: α7 nAChRs of rat adrenal chromaffin cells; assay type: cell-based

Work on CC(=O)OCC[N+](C)(C)C [ACh, Acetylcholine (ACh) chloride] yielded an ACh-evoked currents [1] of −2730 ± 1789 pA and an ACh-evoked currents ([1]; n=7) of −3992 ± 1649 pA.
COc1cc(OC)c(NC(=O)Nc2cc(C)on2)cc1Cl [PNU120596] was tested, and the “cells with detectable PNU282987-evoked currents in the presence of PNU120596” value [2] was 24/28, the “PNU282987-evoked current amplitude in the presence of PNU120596” value ([2]; SD) was −1275 ± 1668 pA and the “increase in PNU282987-evoked current amplitudes in the presence of PNU120596” value ([2]; SD) was 54 ± 99 fold.
In the case of Cl.O=C(N[C@H]1CN2CCC1CC2)c1ccc(Cl)cc1 [PNU282987, N-[(3R)-1-Azabicyclo[2.2.2]oct-3-yl]-4-chlorobenzamide hydrochloride], the “PNU282987-evoked current amplitudes in some cells (relatively small)” value [2] is reported as 10–20 pA, the “cells in which PNU282987 evoked currents” value [2] is reported as 18/28 and the “PNU282987-evoked current amplitude before PNU120596” value ([2]; SD) is reported as −29 ± 38 pA.
